From ChEMBL document CHEMBL1154836, “Synthesis of glycoside derivatives of hydroxyanthraquinone with ability to dissolve and inhibit formation of crystals of calcium oxalate. Potential compounds in kidney stone therapy” (Eur J Med Chem, 2010) come the findings set out here.

Test system in the first series: not listed separately
In words: Induction of surgically removed human kidney stone dissolution assessed as increase in calcium concentration after 5 days by flame photometry relative to untreated control. In kind it is functional.
Details: not given
As to `O=C1c2ccc(O)c(O)c2C(=O)c2c(O)ccc(O)c21` [QUINALIZARIN], the Activity came to 4167%.
Regarding `O=C1c2ccc(O[C@@H]3O[C@H](CO)[C@H](O)[C@H](O)[C@H]3O)c(O)c2C(=O)c2c(O)ccc(O)c21`, the Activity turned out to be 1667%.
The same measure, in the same setting: under `O=C1c2ccccc2C(=O)c2c(O[C@@H]3O[C@H](CO)[C@@H](O)[C@H](O)[C@H]3O)ccc(O)c21` stands 2000%; under `O=C1c2ccccc2C(=O)c2c(O)ccc(O)c21` [QUINIZARIN], 833%; under `O=C1c2ccccc2C(=O)c2c1ccc(O)c2O` [ATHRAQUINONES A], 717%.
The same measure, in the same setting: to `O=C1c2ccccc2C(=O)c2c1ccc(O[C@@H]1O[C@H](CO)[C@@H](O)[C@H](O)[C@H]1O)c2O` belongs 1583%.
On the same count and under the same terms, under `O=C1c2ccc(O[C@@H]3O[C@H](CO)[C@@H](O)[C@H](O)[C@H]3O)c(O)c2C(=O)c2c(O)ccc(O)c21` stands 4833%.
For the compound `O=C1c2ccccc2C(=O)c2c1ccc(O[C@@H]1O[C@H](CO)[C@H](O)[C@H](O)[C@H]1O)c2O`, the Activity is 1500%.

Test system in the next series: not listed separately
The series can be described thus: Induction of calcium oxalate dissolution assessed as increase in calcium concentration after 5 days by flame photometry relative to untreated control. It counts as physicochemical. The settings on record: 120 h.
For `O=C1c2ccc(O)c(O)c2C(=O)c2c(O)ccc(O)c21` [QUINALIZARIN], the Activity is on record as 1324%.
Same read-out and setting: under `O=C1c2ccc(O[C@@H]3O[C@H](CO)[C@H](O)[C@H](O)[C@H]3O)c(O)c2C(=O)c2c(O)ccc(O)c21` stands 513%; under `O=C1c2ccccc2C(=O)c2c(O[C@@H]3O[C@H](CO)[C@@H](O)[C@H](O)[C@H]3O)ccc(O)c21`, 541%; under `O=C1c2ccccc2C(=O)c2c(O)ccc(O)c21` [QUINIZARIN], 205%.
Regarding `O=C1c2ccccc2C(=O)c2c1ccc(O)c2O` [ATHRAQUINONES A], the Activity is on record as 246%.
For the compound `O=C1c2ccccc2C(=O)c2c1ccc(O[C@@H]1O[C@H](CO)[C@@H](O)[C@H](O)[C@H]1O)c2O`, the Activity is recorded as 595%.
Same read-out and setting: to `O=C1c2ccc(O[C@@H]3O[C@H](CO)[C@@H](O)[C@H](O)[C@H]3O)c(O)c2C(=O)c2c(O)ccc(O)c21` belongs 1513%; to `O=C1c2ccccc2C(=O)c2c1ccc(O[C@@H]1O[C@H](CO)[C@H](O)[C@H](O)[C@H]1O)c2O`, 432%.

Test system in another series: not listed separately
In words: Inhibition of calcium oxalate crystal formation assessed as change of shift in titration end point by conductometric titration. It counts as functional.
Details: not given
`O=C1c2ccc(O)c(O)c2C(=O)c2c(O)ccc(O)c21` [QUINALIZARIN]: the Activity stood at 90 µL.
As for `O=C1c2ccc(O[C@@H]3O[C@H](CO)[C@H](O)[C@H](O)[C@H]3O)c(O)c2C(=O)c2c(O)ccc(O)c21`, the Activity amounted to 170 µL.
Still for that read-out and setting: under `O=C1c2ccccc2C(=O)c2c(O[C@@H]3O[C@H](CO)[C@@H](O)[C@H](O)[C@H]3O)ccc(O)c21` stands 60 µL.
On the same count and under the same terms, to `O=C1c2ccccc2C(=O)c2c(O)ccc(O)c21` [QUINIZARIN] belongs 30 µL.
Turning to `O=C1c2ccccc2C(=O)c2c1ccc(O)c2O` [ATHRAQUINONES A], the Activity stood at 40 µL.
As to `O=C1c2ccccc2C(=O)c2c1ccc(O[C@@H]1O[C@H](CO)[C@@H](O)[C@H](O)[C@H]1O)c2O`, the Activity came to 80 µL.
Still for that read-out and setting: under `O=C1c2ccc(O[C@@H]3O[C@H](CO)[C@@H](O)[C@H](O)[C@H]3O)c(O)c2C(=O)c2c(O)ccc(O)c21` stands 180 µL; under `O=C1c2ccccc2C(=O)c2c1ccc(O[C@@H]1O[C@H](CO)[C@H](O)[C@H](O)[C@H]1O)c2O`, 70 µL.

In another series the test system is A549. The series can be described thus: Cytotoxicity against human A549 cells at 500 ug/ml. It counts as cell-based.
Details: not given
For the compound `O=C1c2ccccc2C(=O)c2c(O[C@@H]3O[C@H](CO)[C@@H](O)[C@H](O)[C@H]3O)ccc(O)c21`, the Activity entry is “Non-toxic”.
Still for that read-out and setting: to `O=C1c2ccccc2C(=O)c2c(O)ccc(O)c21` [QUINIZARIN] belongs “Toxic”; to `O=C1c2ccccc2C(=O)c2c1ccc(O)c2O` [ATHRAQUINONES A], “Toxic”; to `O=C1c2ccccc2C(=O)c2c1ccc(O[C@@H]1O[C@H](CO)[C@@H](O)[C@H](O)[C@H]1O)c2O`, “Non-toxic”.
Still for that read-out and setting: to `O=C1c2ccccc2C(=O)c2c1ccc(O[C@@H]1O[C@H](CO)[C@H](O)[C@H](O)[C@H]1O)c2O` belongs “Non-toxic”.

A further series relates to L929. The series can be described thus: Cytotoxicity against mouse L929 cells at 500 ug/ml. In kind it is cell-based.
Details: not given
As for `O=C1c2ccccc2C(=O)c2c(O[C@@H]3O[C@H](CO)[C@@H](O)[C@H](O)[C@H]3O)ccc(O)c21`, the Activity entry was “Non-toxic”.
Consider `O=C1c2ccccc2C(=O)c2c(O)ccc(O)c21` [QUINIZARIN], for which the Activity entry is listed as “Toxic”.
On the same count and under the same terms, under `O=C1c2ccccc2C(=O)c2c1ccc(O)c2O` [ATHRAQUINONES A] stands “Toxic”.
On to `O=C1c2ccccc2C(=O)c2c1ccc(O[C@@H]1O[C@H](CO)[C@@H](O)[C@H](O)[C@H]1O)c2O`, for which the Activity result is recorded as “Non-toxic”.
On the same count and under the same terms, to `O=C1c2ccccc2C(=O)c2c1ccc(O[C@@H]1O[C@H](CO)[C@H](O)[C@H](O)[C@H]1O)c2O` belongs “Non-toxic”.
